Reference: patent US10526316B2, “Quinoxaline and pyridopyrazine derivatives as PI3Kβ inhibitors” (Janssen Pharmaceutica NV, priority 2015, dated 2020)
Read-outs that look alike come from different tables or passages of the source.

How the values were obtained:
PI3Kβ = target: T1, PI3Kβ (Homo sapiens, UniProt P42338); assay: Enzyme binding assay (KINOMEscan, DiscoveRx); conditions: PIK3Cβ_h, read-out: Kd PIK3Cβ_h
T1 construct: purchased DiscoveRx Corporation, San Diego (contract service, KINOMEscan)
Procedure, shortened: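 Kinase binding affinities were measured with KINOMEscan technology. Results are given as Kd, the inhibitor binding constant, in nM.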

PI3Kδ = target: T2, PI3Kδ (Homo sapiens, UniProt O00329); assay: Enzyme binding assay (KINOMEscan, DiscoveRx); conditions: PIK3Cδ_h
T2 construct: purchased DiscoveRx Corporation, San Diego (contract service, KINOMEscan)
T2 sequence (O00329 1-1044): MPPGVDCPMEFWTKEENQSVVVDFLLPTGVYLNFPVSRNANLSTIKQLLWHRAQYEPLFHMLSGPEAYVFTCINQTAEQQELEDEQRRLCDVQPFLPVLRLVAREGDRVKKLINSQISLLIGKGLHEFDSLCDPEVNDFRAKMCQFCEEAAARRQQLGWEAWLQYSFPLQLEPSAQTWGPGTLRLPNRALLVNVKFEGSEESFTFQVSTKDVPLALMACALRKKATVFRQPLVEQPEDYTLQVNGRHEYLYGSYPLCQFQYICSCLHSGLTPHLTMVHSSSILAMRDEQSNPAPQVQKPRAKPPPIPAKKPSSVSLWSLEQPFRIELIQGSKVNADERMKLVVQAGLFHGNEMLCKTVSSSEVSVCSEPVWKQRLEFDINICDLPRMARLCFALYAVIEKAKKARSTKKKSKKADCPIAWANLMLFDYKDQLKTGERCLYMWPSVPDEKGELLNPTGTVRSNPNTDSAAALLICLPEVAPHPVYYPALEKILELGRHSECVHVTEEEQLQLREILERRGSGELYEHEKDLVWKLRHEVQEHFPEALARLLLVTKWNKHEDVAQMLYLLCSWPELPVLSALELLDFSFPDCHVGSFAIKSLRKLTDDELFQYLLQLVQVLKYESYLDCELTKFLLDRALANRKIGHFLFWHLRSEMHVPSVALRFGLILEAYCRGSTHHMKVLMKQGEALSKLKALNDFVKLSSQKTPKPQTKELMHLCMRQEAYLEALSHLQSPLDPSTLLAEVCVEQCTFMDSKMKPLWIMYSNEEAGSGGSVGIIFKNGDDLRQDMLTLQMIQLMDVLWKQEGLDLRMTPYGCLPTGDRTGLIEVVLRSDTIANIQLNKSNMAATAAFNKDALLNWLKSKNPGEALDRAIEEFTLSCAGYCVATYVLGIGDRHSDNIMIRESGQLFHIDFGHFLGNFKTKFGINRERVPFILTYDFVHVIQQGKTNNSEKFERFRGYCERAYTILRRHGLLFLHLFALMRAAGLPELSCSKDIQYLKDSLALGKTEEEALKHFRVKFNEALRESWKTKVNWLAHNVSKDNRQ
Procedure, shortened: (§1)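 Binding affinities were measured on the KINOMEscan platform.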

kinase enzymes [1] = target: T3, kinase enzymes (Homo sapiens, UniProt P42336); assay: Enzyme binding assay (KINOMEscan, DiscoveRx), further kinases of Table A; conditions: PIK3Cα_h
T3 construct: purchased DiscoveRx Corporation, San Diego (contract service, KINOMEscan)
Procedure, shortened: as §1

kinase enzymes [2] = target: T4, kinase enzymes (Homo sapiens, UniProt P42345); assay: as above; conditions: MTOR_h
T4 construct: purchased DiscoveRx Corporation, San Diego (contract service, KINOMEscan)
Procedure, shortened: as §1

kinase enzymes [3] = target: T5, kinase enzymes (Homo sapiens, UniProt P48736); assay: as above; conditions: PIK3Cγ_h
T5 construct: purchased DiscoveRx Corporation, San Diego (contract service, KINOMEscan)
Procedure, shortened: as §1

[4] = system: Akt phosphorylated at Ser473 in PC-3 cells; assay: Cellular assay: phosphorylation of Akt at Ser473 in PC-3 cells (MSD ELISA); assay type: cell-based; conditions: PC-3 cells, 60 min compound incubation, MSD ELISA, read-out: IC50 pAkt_S473
Procedure, shortened: (§2)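 Compound treatment of PC-3 cells lasted 60 min at 37° C (0.3% DMSO). Lysates were then applied to plates carrying capture antibodies for the relevant phospho-site, and bound Akt was detected with an electrochemiluminescent anti-total Akt antibody; IC50s derive from five-point curves.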

[5] = system: Akt phosphorylated at Thr308 in PC-3 cells; assay: Cellular assay: phosphorylation of Akt at Thr308 in PC-3 cells (MSD ELISA); assay type: cell-based; conditions: PC-3 cells, 60 min compound incubation, MSD ELISA, read-out: IC50 pAkt_Thr308
Procedure, shortened: as §2

T5 sequence (P48736 whole entry): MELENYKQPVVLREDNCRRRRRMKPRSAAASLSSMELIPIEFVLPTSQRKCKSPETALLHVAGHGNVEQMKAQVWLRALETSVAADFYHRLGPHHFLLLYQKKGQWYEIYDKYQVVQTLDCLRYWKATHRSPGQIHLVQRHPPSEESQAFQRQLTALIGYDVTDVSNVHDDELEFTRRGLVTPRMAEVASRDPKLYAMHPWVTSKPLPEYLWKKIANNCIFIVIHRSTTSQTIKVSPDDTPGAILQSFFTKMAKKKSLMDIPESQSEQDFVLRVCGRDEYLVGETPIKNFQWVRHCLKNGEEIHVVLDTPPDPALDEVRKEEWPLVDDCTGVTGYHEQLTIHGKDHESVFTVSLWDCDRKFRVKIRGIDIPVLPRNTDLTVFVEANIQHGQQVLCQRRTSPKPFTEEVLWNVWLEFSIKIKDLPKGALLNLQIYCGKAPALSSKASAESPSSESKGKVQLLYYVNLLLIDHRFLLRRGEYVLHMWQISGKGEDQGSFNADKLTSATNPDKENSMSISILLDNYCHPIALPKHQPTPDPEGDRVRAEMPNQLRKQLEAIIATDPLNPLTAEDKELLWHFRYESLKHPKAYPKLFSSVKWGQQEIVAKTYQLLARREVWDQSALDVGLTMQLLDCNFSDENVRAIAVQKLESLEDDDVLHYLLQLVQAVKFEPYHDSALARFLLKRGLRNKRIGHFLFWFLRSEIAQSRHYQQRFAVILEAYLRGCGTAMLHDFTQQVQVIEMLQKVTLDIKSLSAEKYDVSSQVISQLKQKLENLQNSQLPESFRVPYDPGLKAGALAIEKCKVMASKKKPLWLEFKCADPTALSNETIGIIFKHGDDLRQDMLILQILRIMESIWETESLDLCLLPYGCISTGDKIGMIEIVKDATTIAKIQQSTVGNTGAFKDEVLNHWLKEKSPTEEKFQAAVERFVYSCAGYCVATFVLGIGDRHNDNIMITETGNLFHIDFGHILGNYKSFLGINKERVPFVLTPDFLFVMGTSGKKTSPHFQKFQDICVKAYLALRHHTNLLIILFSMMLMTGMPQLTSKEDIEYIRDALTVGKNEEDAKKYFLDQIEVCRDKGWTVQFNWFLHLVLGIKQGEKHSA
T3 sequence (P42336 whole entry): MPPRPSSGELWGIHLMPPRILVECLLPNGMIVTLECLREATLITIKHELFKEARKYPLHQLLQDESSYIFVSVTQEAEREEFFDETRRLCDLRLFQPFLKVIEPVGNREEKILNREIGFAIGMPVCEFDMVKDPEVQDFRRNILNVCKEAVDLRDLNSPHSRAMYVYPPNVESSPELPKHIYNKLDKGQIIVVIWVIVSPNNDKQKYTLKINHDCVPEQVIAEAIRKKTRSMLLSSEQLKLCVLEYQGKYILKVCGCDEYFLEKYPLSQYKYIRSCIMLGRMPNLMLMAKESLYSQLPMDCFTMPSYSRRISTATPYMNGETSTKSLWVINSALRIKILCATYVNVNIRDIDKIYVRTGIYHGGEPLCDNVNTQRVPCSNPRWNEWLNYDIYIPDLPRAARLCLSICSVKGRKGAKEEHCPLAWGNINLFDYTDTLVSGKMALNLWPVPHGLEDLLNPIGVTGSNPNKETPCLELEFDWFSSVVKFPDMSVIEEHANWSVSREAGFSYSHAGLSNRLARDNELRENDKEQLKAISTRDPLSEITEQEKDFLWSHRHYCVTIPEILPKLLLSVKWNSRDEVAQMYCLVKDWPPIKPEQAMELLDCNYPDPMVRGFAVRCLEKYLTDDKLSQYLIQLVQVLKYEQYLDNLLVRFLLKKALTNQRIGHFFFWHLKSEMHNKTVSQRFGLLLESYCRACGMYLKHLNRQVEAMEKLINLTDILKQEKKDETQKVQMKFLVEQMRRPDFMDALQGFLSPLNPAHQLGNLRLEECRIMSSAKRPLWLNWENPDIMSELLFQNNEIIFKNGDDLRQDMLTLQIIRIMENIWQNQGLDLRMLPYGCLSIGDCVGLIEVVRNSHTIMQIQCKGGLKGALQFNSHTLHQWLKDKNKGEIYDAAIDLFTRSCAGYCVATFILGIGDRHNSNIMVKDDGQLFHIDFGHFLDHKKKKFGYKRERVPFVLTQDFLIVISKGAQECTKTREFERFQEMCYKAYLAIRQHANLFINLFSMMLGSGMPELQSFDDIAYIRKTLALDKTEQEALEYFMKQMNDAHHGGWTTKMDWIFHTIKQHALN
T1 sequence (P42338 whole entry): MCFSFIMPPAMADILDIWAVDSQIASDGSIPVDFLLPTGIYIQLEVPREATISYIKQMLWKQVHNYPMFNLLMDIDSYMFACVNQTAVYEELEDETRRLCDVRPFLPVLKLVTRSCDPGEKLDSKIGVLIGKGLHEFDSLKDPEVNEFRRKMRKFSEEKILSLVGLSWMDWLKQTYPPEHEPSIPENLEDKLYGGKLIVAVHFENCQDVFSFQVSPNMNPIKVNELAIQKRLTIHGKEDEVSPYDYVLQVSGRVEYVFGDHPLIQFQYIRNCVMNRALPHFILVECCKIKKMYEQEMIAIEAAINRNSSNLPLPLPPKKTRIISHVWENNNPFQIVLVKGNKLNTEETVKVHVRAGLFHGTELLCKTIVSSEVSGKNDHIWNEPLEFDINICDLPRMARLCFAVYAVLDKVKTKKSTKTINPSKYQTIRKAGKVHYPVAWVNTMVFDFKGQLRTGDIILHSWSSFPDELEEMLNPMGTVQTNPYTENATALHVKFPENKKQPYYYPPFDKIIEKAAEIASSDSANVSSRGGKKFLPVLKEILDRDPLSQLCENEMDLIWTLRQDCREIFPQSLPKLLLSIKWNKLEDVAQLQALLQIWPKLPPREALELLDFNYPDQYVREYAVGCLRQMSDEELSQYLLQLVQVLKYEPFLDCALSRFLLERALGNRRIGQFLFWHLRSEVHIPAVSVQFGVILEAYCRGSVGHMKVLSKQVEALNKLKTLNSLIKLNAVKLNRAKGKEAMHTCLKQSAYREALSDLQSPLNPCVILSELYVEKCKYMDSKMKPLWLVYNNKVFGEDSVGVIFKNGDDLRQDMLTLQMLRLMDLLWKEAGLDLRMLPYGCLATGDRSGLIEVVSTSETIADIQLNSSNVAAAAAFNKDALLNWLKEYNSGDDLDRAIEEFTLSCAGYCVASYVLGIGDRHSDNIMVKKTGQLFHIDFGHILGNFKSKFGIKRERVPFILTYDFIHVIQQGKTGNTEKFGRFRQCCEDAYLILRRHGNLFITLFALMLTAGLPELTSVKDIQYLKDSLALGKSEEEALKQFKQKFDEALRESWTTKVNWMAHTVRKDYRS

| Structure (SMILES) | Kd (PI3Kβ) [nM] | Kd (PI3Kδ) [nM] | Kd (kinase enzymes [1]) [nM] | Kd (kinase enzymes [2]) [µM] | Kd (kinase enzymes [3]) [µM] | IC50 [4] [nM] | IC50 [5] [nM] | melting point [°C] | IC50 ([4]; Homo sapiens, PC-3, 1 h) [nM] | IC50 ([5]; Homo sapiens, PC-3, 1 h) [nM] |
| --- | --- | --- | --- | --- | --- | --- | --- | --- | --- | --- |
| CC(Oc1cc(F)cc(F)c1)c1cc(C(=O)N(C)C)cc2ncc(C3=CCOCC3)nc12 (single isomer, unassigned) [Compound 403b] | 3160 | 17400 | > 30200 | > 30.2 | > 30.2 | > 513 | > 513 | 54 | – | – |
| O=C(c1cc(C2CCCN2c2cc(F)cc(F)c2)c2nc(N3CCOCC3)cnc2c1)N1CC2(C1)CS(=O)(=O)C2 (centres unmarked) [Compound 34] | 0.4 | 30 | 50 | > 30.2 | 0.933 | – | – | 160 | < 0.8 | 3 |
| CC(Nc1cc(F)cc(F)c1)c1cc(CN2C[C@@H](C)O[C@@H](C)C2)cc2ncc(N3CCOCC3)nc12 (single isomer, unassigned) [Compound 206] | 7080 | > 30200 | > 30200 | > 30.2 | > 30.2 | > 513 | > 513 | 80 | – | – |
| CNCCNC(=O)c1cc(NCc2cc(F)cc(F)c2)c2nc(N3CCOCC3)cnc2c1 [Compound 340] | 2 | 372 | 1510 | 12 | 5.01 | – | – | 180 | 76 | 50 |
| CN(C)C(=O)c1cc(C2CCCN2c2cc(F)cc(CO)c2)c2nc(N3CCOCC3)cnc2c1 (centres unmarked) [Compound 45] | 3 | 126 | 170 | 31.6 | 2.09 | – | – | 80 | 166 | 72 |
| Fc1cc(F)cc(N2CCCC2c2cncc3ncc(N4CCOCC4)nc23)c1 (single isomer, unassigned) [Compound 24] | 1 | 245 | 302 | 18.6 | 0.372 | 36 | 30 | 100 | – | – |
| CC(Nc1cc(F)c(F)c(F)c1)c1cc(C(=O)NC[C@@H](C)O)cc2ncc(N3CCOCC3)nc12 (single isomer, unassigned) [Compound 284b] | 2150 | > 30200 | > 30200 | > 30.2 | 5.07 | > 513 | > 513 | 112 | – | – |
| C[C@H](CO)NCc1ccc(F)cc1N1CCCC1c1cc(C(=O)N(C)C)cc2ncc(N3CCOCC3)nc12 (mixture of isomers) [Compound 67] | 18 | 617 | 2460 | > 30.2 | 20.9 | – | – | 80 | 195 | 166 |
| O=C(NCCO)c1cc(NCc2cccc(F)c2)c2nc(N3CCOCC3)cnc2c1 [Compound 230] | 12 | 759 | 7080 | 12 | 18.2 | – | – | 218 | 145 | 141 |
| CCN1CCN(C(=O)c2cc(C(C)Nc3cccc(F)c3)c3nc(N4CCOCC4)cnc3c2)CC1 (single isomer, unassigned) [Compound 113] | 1020 | > 30200 | > 30200 | > 30.2 | > 10 | > 513 | > 513 | 307 | – | – |
| CC(Oc1cc(F)cc(F)c1)c1cc(-c2cnc[nH]2)cc2ncc(N3CCOCC3)nc12 (single isomer, unassigned) [Compound 21] | 63 | 2240 | 4790 | 20 | 15.8 | – | – | 184 | 513 | ~501 |
| CC(Nc1cc(F)cc(F)c1)c1cc(C(=O)O)cc2ncc(N3CCOCC3)nc12 (single isomer, unassigned) [Compound 83c] | 158 | 4900 | 3090 | 3.09 | 2.69 | > 513 | > 513 | 157 | – | – |
| CC1CN(c2cnc3cc(C(=O)N(C)C)cc(C(C)Nc4cccc(F)c4)c3n2)CCO1 (centres unmarked) [Compound 136] | 3 | 355 | 2340 | 15.1 | 5.13 | – | – | 184 | 178 | 65 |
| CC(Nc1ccc(F)c(F)c1)c1cc(C(=O)N2CCC[C@H](O)C2)cc2ncc(N3CCOCC3)nc12 (single isomer, unassigned) [Compound 302a] | 1320 | > 30200 | > 30200 | > 30.2 | > 30.2 | – | – | 135 | > 513 | > 513 |
| Cc1cc(C2CCCN2c2cc(F)cc(F)c2)c2nc(N3CCOCC3)cnc2c1 (single isomer, unassigned) [Compound 106] | 6 | 1000 | 3160 | > 30.2 | 3.31 | 105 | 62 | 80 | – | – |
| CC(Nc1cc(F)c(F)c(F)c1)c1cc(C(=O)NCCO)cc2ncc(N3CCOCC3)nc12 (single isomer, unassigned) [Compound 213] | 2 | 269 | 2090 | 7.76 | 3.24 | 33 | 25 | 80 | – | – |
